{"source": "patent US6585967B2", "about": "“Adhesive treatment for tinea cruris” (Closure Medical Corporation, priority 2001, dated 2003)", "assay": "Observation of haloprogin / 2-octyl cyanoacrylate monomer composition after preparation", "assay_type": "physicochemical", "procedure": "A 2-octyl cyanoacrylate monomer composition is prepared by adding 30 mg of haloprogin, an anti-fungal agent, to 2 mL of 2-octyl cyanoacrylate monomer. The mixture is sealed in a glass vial and stirred. The characteristics of the composition are observed at about one minute after preparation and later at least twenty-four hours after preparation.", "data": [{"smiles": "Clc1cc(Cl)c(OCC#CI)cc1Cl", "note": "[haloprogin]", "values": [{"measurement": "premature polymerization of the monomer (stability)", "setting": "30 mg haloprogin in 2 mL 2-octyl cyanoacrylate monomer, at least twenty-four hours after preparation", "value": "does not cause premature polymerization"}, {"measurement": "solubility of haloprogin in the monomer", "setting": "30 mg in 2 mL 2-octyl cyanoacrylate monomer, about one minute and at least twenty-four hours after preparation", "value": "soluble in the monomer"}]}]}
